What all share (format): in vivo
Experiment [1] has as its system Alopecurus myosuroides (ALOMY). Briefly: Pre-emergence biological efficacy, glasshouse pot test. The conditions noted are these: 312 h, pre-emergence, 1,000 g/ha, evaluated after 13 days (100=total damage; 0=no damage), read-out: Percentage damage ALOMY. The protocol:
(§1) Seeds of Alopecurus myosuroides (ALOMY), Setaria faberi (SETFA), Echinochloa crus-galli (ECHCG), Solanum nigrum (SOLNI), Amaranthus retoflexus (AMARE) and Ipomea hederaceae (IPOHE) were sown in standard soil in pots. After cultivation for one day under controlled conditions in a glasshouse (at 24/16° C., day/night; 14 hours light; 65% humidity), the plants were sprayed with an aqueous spray solution derived from the formulation of the technical active ingredient in acetone/water (50:50) solution containing 0.5% Tween 20 (polyoxyethelyene sorbitan monolaurate, CAS RN 9005-64-5) to give a final dose of 1000 or 250 g/ha of test compound.
(§2) The test plants were then grown under controlled conditions in the glasshouse (at 24/16° C., day/night; 14 hours light; 65% humidity) and watered twice daily. After 13 days the test was evaluated (100=total damage to plant; 0=no damage to plant).

Experiment [2] deals with Solanum nigrum (SOLNI). The description is as above. The conditions noted are these: 312 h, pre-emergence, 1,000 g/ha, evaluated after 13 days (100=total damage; 0=no damage), read-out: Percentage damage SOLNI. On the procedure: as §1, §2
In experiment [3] the test system is Echinochloa crus-galli (ECHCG). The description is as above. As to conditions: 312 h, pre-emergence, 1,000 g/ha, evaluated after 13 days (100=total damage; 0=no damage), read-out: Percentage damage ECHCG. On the procedure:
as §1, §2

Experiment [4] has as its system Amaranthus retoflexus (AMARE). Described as above. The conditions noted are these: Amaranthus retroflexus, 312 h; pre-emergence, 1,000 g/ha, evaluated after 13 days (100=total damage; 0=no damage); read-out: Percentage damage AMARE. On the procedure:
as §1, §2

Experiment [5] concerns Ipomea hederaceae (IPOHE). The description is as above. The conditions noted are these: Ipomoea hederacea, 312 h; pre-emergence, 1,000 g/ha, evaluated after 13 days (100=total damage; 0=no damage); read-out: Percentage damage IPOHE. On the procedure:
as §1, §2

In experiment [6] the test system is Setaria faberi (SETFA). The experiment is described as above. The conditions noted are these: 312 h, pre-emergence, 1,000 g/ha, evaluated after 13 days (100=total damage; 0=no damage), read-out: Percentage damage SETFA. On the procedure:
as §1, §2

The test system of experiment [7] is Alopecurus myosuroides (ALOMY). The experiment is described as follows: Post-emergence biological efficacy, glasshouse pot test. The conditions noted are these: 312 h, post-emergence, 1,000 g/ha, evaluated after 13 days (100=total damage; 0=no damage), read-out: Percentage damage caused to weed species, ALOMY. The protocol: as §1, with “8 days” for “one day”
(§3) The test plants were then grown on under controlled conditions in a glasshouse (at 24/16° C., day/night; 14 hours light; 65% humidity) and watered twice daily. After 13 days the test was evaluated (100=total damage to plant; 0=no damage to plant).

Experiment [8] relates to Solanum nigrum (SOLNI). The experiment is described as above. As to conditions: 312 h, post-emergence, 1,000 g/ha, evaluated after 13 days (100=total damage; 0=no damage), read-out: Percentage damage caused to weed species, SOLNI. On the procedure:
as §1, with “8 days” for “one day”
as §3

Experiment [9] deals with Echinochloa crus-galli (ECHCG). Described as above. As to conditions: 312 h, post-emergence, 1,000 g/ha, evaluated after 13 days (100=total damage; 0=no damage), read-out: Percentage damage caused to weed species, ECHCG. On the procedure: as §1, with “8 days” for “one day”
as §3

Experiment [10] has as its system Amaranthus retoflexus (AMARE). The experiment is described as above. As to conditions: Amaranthus retroflexus, 312 h; post-emergence, 1,000 g/ha, evaluated after 13 days (100=total damage; 0=no damage); read-out: Percentage damage caused to weed species, AMARE. The protocol: as §1, with “8 days” for “one day”
as §3

In experiment [11] the test system is Ipomea hederaceae (IPOHE). The description is as above. As to conditions: Ipomoea hederacea, 312 h; post-emergence, 1,000 g/ha, evaluated after 13 days (100=total damage; 0=no damage); read-out: Percentage damage caused to weed species, IPOHE. On the procedure:
as §1, with “8 days” for “one day”
as §3

Experiment [12] has as its system Setaria faberi (SETFA). Described as above. As to conditions: 312 h, post-emergence, 1,000 g/ha, evaluated after 13 days (100=total damage; 0=no damage), read-out: Percentage damage caused to weed species, SETFA. The protocol:
as §1, with “8 days” for “one day”
as §3

For `COC(=O)c1nc(C2CC2)nc(NC2(/C=C\c3ccccc3)CC2)c1Cl` [4-19 (Z), 5-Chloro-2-cyclopropyl-6-methoxycarbonyl-[(Z)-1-(2-phenylethenyl)-cyclopropylamino]-pyrimidine], the pest or weed control at 1000 g/ha in experiment [1] worked out at 20%; in the experiment on Solanum nigrum (SOLNI) [2], 40%; in experiment [3] it was 20%; in experiment [4], 90%; in experiment [5] it was 90%; in the experiment with Setaria faberi (SETFA) [6] it was 0%. Further, the pest or weed control at 1000 g/ha in experiment [7] was 10%; with Solanum nigrum (SOLNI) [8], 90%; in [9], 30%; in experiment [10], 100%; in [11], 100%; with Setaria faberi (SETFA) [12], 60%.
As to `COC(=O)c1nc(C2CC2)nc(N[C@@H]2c3ccccc3C[C@@H]2O)c1Cl` [4-37 (1R,2S), 5-Chloro-2-cyclopropyl-4-[(1R, 2S)-2-hydroxy-indan-1-ylamino]-6-methoxycarbonyl-pyrimidine], the pest or weed control at 1000 g/ha amounted to 50% in experiment [1]; 100% with Solanum nigrum (SOLNI) [2]; 60% in experiment [3]; 100% in [4]; 100% in [5]; 80% in the experiment with Setaria faberi (SETFA) [6]. Besides, the pest or weed control at 1000 g/ha in experiment [7] was 30%; in the experiment on Solanum nigrum (SOLNI) [8], 100%; in [9], 60%; in [10] it was 100%; in experiment [11] it was 100%; in the experiment on Setaria faberi (SETFA) [12], 70%.
For the compound `COC(=O)c1nc(C2CC2)nc(N[C@H]2c3ccccc3C[C@H]2O)c1Cl` [4-37 (1S,2R), 5-Chloro-2-cyclopropyl-4-[(1S, 2R)-2-hydroxy-indan-1-ylamino]-6-methoxycarbonyl-pyrimidine], the pest or weed control at 1000 g/ha in experiment [1] came to 30%; with Solanum nigrum (SOLNI) [2] it was 90%; in [3] it was 40%; in experiment [4], 100%; in experiment [5], 80%; in the experiment on Setaria faberi (SETFA) [6], 60%. Moreover, the pest or weed control at 1000 g/ha in [7] worked out at 50%; in the experiment with Solanum nigrum (SOLNI) [8] it was 100%; in experiment [9], 60%; in [10], 100%; in [11], 50%; with Setaria faberi (SETFA) [12], 60%.
As for `COC(=O)c1nc(C2CC2)nc(N[C@H]2COC[C@H]2O)c1Cl` [4-38 (S,S), 5-Chloro-2-cyclopropyl-4-[(3S, 4S)-4-hydroxytetra-hydrofuran-3-ylamino]-6-methoxycarbonyl-pyrimidine], the pest or weed control at 1000 g/ha in experiment [1] came out at 20%; in the experiment on Solanum nigrum (SOLNI) [2], 80%; in experiment [3], 30%; in experiment [4] it was 100%; in [5] it was 70%; with Setaria faberi (SETFA) [6] it was 30%. Also, the pest or weed control at 1000 g/ha turned out to be 30% in [7]; 80% with Solanum nigrum (SOLNI) [8]; 10% in experiment [9]; 100% in experiment [10]; 30% in experiment [11]; 60% in the experiment on Setaria faberi (SETFA) [12].
Regarding `COC(=O)c1nc(C2CC2)nc(N[C@@H](C)C2CCCCC2)c1Cl` [4-173 (S), 5-Chloro-4-[(1S)-1-(cyclohexyl)ethyl-amino]-2-cyclopropyl-6-methoxycarbonyl-pyrimidine], the pest or weed control at 1000 g/ha turned out to be 0% in experiment [1]; 0% with Solanum nigrum (SOLNI) [2]; 0% in experiment [3]; 20% in experiment [4]; 0% in experiment [5]; 0% in the experiment on Setaria faberi (SETFA) [6]. For the same compound, the pest or weed control at 1000 g/ha in [7] was 0%; in the experiment on Solanum nigrum (SOLNI) [8], 20%; in [9], 0%; in experiment [10] it was 20%; in experiment [11], 40%; in the experiment with Setaria faberi (SETFA) [12], 0%.
In the case of `COC(=O)c1nc(C2CC2)nc(N[C@@H](C)c2cccc(OC)c2)c1Cl` [4-180 (S), (S)-5-Chloro-2-cyclopropyl-6-methoxycarbonyl-4-[1-(3-methoxy-phenyl)ethylamino]-pyrimidine], the pest or weed control at 1000 g/ha in experiment [1] came out at 0%; in the experiment on Solanum nigrum (SOLNI) [2], 10%; in experiment [3] it was 0%; in experiment [4] it was 20%; in experiment [5] it was 80%; with Setaria faberi (SETFA) [6], 0%. Also, the pest or weed control at 1000 g/ha in experiment [7] was determined as 20%; in the experiment with Solanum nigrum (SOLNI) [8], 70%; in [9], 50%; in experiment [10], 80%; in [11] it was 80%; with Setaria faberi (SETFA) [12], 30%.
On to `COC(=O)c1nc(C2CC2)nc(N[C@@H](C)c2ccc(OC)cc2)c1Cl` [4-181 (S), (S)-5-Chloro-2-cyclopropyl-6-methoxycarbonyl-4-[1-(4-methoxy-phenyl)ethylamino]-pyrimidine], for which the pest or weed control at 1000 g/ha is 20% in experiment [1]; 60% with Solanum nigrum (SOLNI) [2]; 50% in experiment [3]; 60% in [4]; 80% in [5]; 0% in the experiment on Setaria faberi (SETFA) [6]. Further, the pest or weed control at 1000 g/ha amounted to 30% in experiment [7]; 90% in the experiment with Solanum nigrum (SOLNI) [8]; 50% in experiment [9]; 100% in experiment [10]; 90% in [11]; 40% with Setaria faberi (SETFA) [12].
For the compound `COC(=O)c1nc(C2CC2)nc(N[C@H](C)c2cccc3ccccc23)c1Cl` [4-184 (R), (R)-5-Chloro-2-cyclopropyl-6-methoxycarbonyl-4-[1-(naphth-1-yl)ethylamino]-pyrimidine], the pest or weed control at 1000 g/ha (in [1]; in the experiment on Solanum nigrum (SOLNI) [2]; in experiment [3]; in experiment [4]; in experiment [5]; with Setaria faberi (SETFA) [6]) was 0% each time. In addition, the pest or weed control at 1000 g/ha in experiment [7] was 10%; with Solanum nigrum (SOLNI) [8], 60%; in experiment [9] it was 40%; in [10] it was 80%; in [11], 70%; with Setaria faberi (SETFA) [12] it was 20%.

For the origin of these results see US20110086759A1, “CHEMICAL COMPOUNDS” (SYNGENTA CROP PROTECTION, INC., priority 2007, published 2011).
